Data as given in patent US9096536B2, “Asymmetrically substituted anthrapyridazone derivatives as cytostatics” (BS-154 S.P. ZO.O., priority 2011, dated 2015).
Where two headings read alike, the source gives them in different places.

Experiments:
CT-DNA = assay: Interaction with isolated CT-DNA, fluorescence competition with ethidium bromide; assay type: binding; settings: for IC50: 50% decrease in fluorescence intensity of DNA-bromide ethydine complex; for Kapp relative constant of DNA-compound bonding: Kapp = (1.26/C50) × KEtBr, KEtBr = 10^7M
Text: It could be supposed that this property explains cytostatic activity of compounds. In Table 9 there are presented quantitative data on the affinity to DNA of tested compounds using the fluorescence method and competitive affinity to DNA of bromine ethydine and tested compounds.

[1] = system: human promyelocytic leukemia cell line HL-60; assay: Cytostatic activity in vitro, HL-60 sensitive line; assay type: cell-based; settings: read-out: HL60 IC50
Text: (§1) Tables 3 and 4 show cytostatic activity in vitro of 2,6-disubstituted and 2- or 6-monosubstituted (Tab.3), and of 2,5-disubstituted-(Tab.-4) tetracyclic anthrapyridazone derivatives using leukemia cell line HL-60 and the resistant cell sublines with resistance induced by vincristine (MDR-1) or doxorubicin (MRP). Activity of compounds is differentiated depending on their structure, but in all cases resistance indexes are more advantageous in comparison with reference compounds: doxorubicin and mitoxantrone.

HL60/VINC = assay: Cytostatic activity in vitro, vincristine-induced resistant subline (MDR-1); assay type: cell-based, human; settings: for RI resistance index HL60/VINC / RI resistance index HL60VINC: IC50(resistant cells)/IC50(sensitive cells); for RI resistance index HL60/VINC: HL60/VINC vs HL60, 72 h; for RI resistance index HL60VINC: 96 h
Text: as §1

HL60/DX = assay: Cytostatic activity in vitro, doxorubicin-induced resistant subline (MRP); assay type: cell-based, human; settings: for RI resistance index HL60/DX: IC50(resistant cells)/IC50(sensitive cells)
Text: as §1

[2] = system: human prostate cancer cell line DU145; assay: Cytostatic activity in vitro, prostate cancer DU145; assay type: cell-based; settings: 72 h continuous exposure
Text: (§2) Table 5 presents activity in vitro of anthrapiridazone derivatives towards three cell lines of prostate cancer, naturally multidrug resistant, in comparison with references doxorubicin, mitoxantrone and taxol.

[3] = system: human prostate cancer cell line LNCaP; assay: Cytostatic activity in vitro, prostate cancer LNCaP; assay type: cell-based; settings: 72 h continuous exposure
Text: as §2

[4] = system: human prostate cancer cell line PC3; assay: Cytostatic activity in vitro, prostate cancer PC3; assay type: cell-based; settings: 72 h continuous exposure
Text: as §2

[5] = 50% inhibition of cell growth after 72 h continuous exposure
[6] = 96 h continuous exposure, read-out: HL60VINC IC50

| SMILES | IC50 (CT-DNA) [µM] | Kapp relative constant of DNA-compound bonding (CT-DNA) [M⁻¹] | IC50 [1, 5] [µM] | IC50 (HL60/VINC; 72 h continuous exposure) [µM] | RI resistance index HL60/VINC (HL60/VINC) | IC50 (HL60/DX; 72 h continuous exposure) [µM] | RI resistance index HL60/DX (HL60/DX; HL60/DX vs HL60, 72 h) | IC50 [2] [µM] | IC50 [3] [µM] | IC50 [4] [µM] | IC50 ([1]; 96 h continuous exposure) [µM] | IC50 (HL60/VINC; [6]) [µM] | RI resistance index HL60VINC (HL60/VINC) | IC50 (HL60/DX; 96 h continuous exposure) [µM] | RI resistance index HL60/DX (HL60/DX; 96 h) | IC50 ([2]; Homo sapiens, DU-145) [µM] | IC50 ([3]; Homo sapiens, LNCaP) [µM] | IC50 ([4]; Homo sapiens) [µM] |
| --- | --- | --- | --- | --- | --- | --- | --- | --- | --- | --- | --- | --- | --- | --- | --- | --- | --- | --- |
| O=C1c2ccccc2C(=O)c2c(NCCNCCO)ccc(NCCNCCO)c21 [Ametantrone, reference compound] | 0.049 ± 0.006 | 2.57e+08 |  |  |  |  |  |  |  |  |  |  |  |  |  |  |  |  |
| CC(CNc1ccc2c(=O)n(CC(C)N(C)C)nc3c2c1C(=O)c1ccccc1-3)N(C)C (stereo not drawn) [Compound C-123, 2-[2-(Dimethylamino)propyl]-6-{[2-(dimethylamino)propyl]amino}-2,7-dihydro-3H-dibenzo[de,h]cynnoline-3,7-dione] | 0.31 ± 0.04 | 4.04e+07 | 0.0087 ± 0.0005 | 0.058 ± 0.006 | 6.7 | 0.827 ± 0.145 | 95.1 | 0.0256 ± 0.0026 | 0.0529 ± 0.0121 | 0.127 ± 0.0386 |  |  |  |  |  |  |  |  |
| CN(C)CCCNc1ccc2c(=O)[nH]nc3c2c1C(=O)c1ccccc1-3 [Compound C-131, 6-[(3-Dimethylamino)propyl]amino-3H-dibenzo[de,h]cynnoline-3,7-dione] | 1.63 ± 0.12 | 7.7e+06 | 1.15 ± 0.244 | 1.01 ± 0.051 | 0.9 | 4.47 ± 0.428 | 3.9 | 1.48 ± 0.127 | 0.927 ± 0.092 | 2.83 ± 0.234 |  |  |  |  |  |  |  |  |
| CCN(CC)CCNc1ccc2c(=O)n(CCN(C)C)nc3c2c1C(=O)c1ccccc1-3 [Compound C-155, 2-[2-(Dimethylamino)ethyl]-6-{[(2-diethylamino)ethyl]amino}-2,7-dihydro-3H-dibenzo[de,h]cynnoline-3,7-dione] | 0.31 ± 0.01 | 4.02e+07 | 0.019 ± 0.004 | 0.116 ± 0.028 | 6.1 | 0.446 ± 0.1 | 23.5 | 0.0714 ± 0.0216 | 0.0262 ± 0.0072 | 0.144 ± 0.0327 |  |  |  |  |  |  |  |  |
| CN(C)CCn1nc2c3ccccc3c3nn(CCN(C)C)c4ccc(c1=O)c2c34 [Compound C-163, Bis-2,6-[2-(dimethylamino)ethyl]-2,6-dihydro-5H-benzo[h]indazolo[5,4,3-def]cynnoline-5-one] | 0.23 ± 0.01 | 5.57e+07 | 0.031 ± 0.006 | 0.048 ± 0.007 | 1.5 | 0.33 ± 0.017 | 10.6 | 0.0218 ± 0.0047 | 0.0282 ± 0.0074 | 0.122 ± 0.0276 |  |  |  |  |  |  |  |  |
| CN(C)CCn1nc2c3c(c(NCCNCCO)ccc3c1=O)C(=O)c1ccccc1-2 [Compound C-165, 2-[2-(Dimethylamino)ethyl]-6-[2-(2-aminoethylamino)ethanolo]-2,7-dihydro-3H-dibenzo[de,h]cynnoline-3,7-dione] | 0.37 ± 0.08 | 3.44e+07 | 0.0021 ± 0.0004 | 0.0308 ± 0.004 | 14.7 | 0.706 ± 0.057 | 336.2 | 0.0143 ± 0.0033 | 0.0081 ± 0.001 | 0.0516 ± 0.0124 |  |  |  |  |  |  |  |  |
| CN(C)CCNc1ccc2c(=O)n(CCO)nc3c2c1C(=O)c1ccccc1-3 [Compound C-167, 2-(2-Hydroxyethyl)-6-(2-dimethylamino)ethylamino-2H-dibenzo[de,h]cynnoline-3,7-dione] | 2.04 ± 0.07 | 6.2e+06 | 0.111 ± 0.027 | 0.393 ± 0.045 | 3.5 | 1.24 ± 0.206 | 11.1 | 0.294 ± 0.053 | 0.202 ± 0.035 | 0.776 ± 0.045 |  |  |  |  |  |  |  |  |
| CN(C)CCn1nc2c3c(cc(NCCN)cc3c1=O)C(=O)c1ccccc1-2 [Compound C-170, 2-[2-(Dimethylamino)ethyl]-5-(2-aminoetyloamino)-2,7-dihydro-3H-dibenzo[de,h]cynnoline-3,7-dione] |  |  |  |  |  |  |  |  |  |  | 0.0082 ± 0.001 | 0.21 ± 0.052 | 25.6 | 0.753 ± 0.029 | 91.9 |  |  |  |
| CN(C)CCn1nc2c3c(cc(NCCNCc4ccccc4)cc3c1=O)C(=O)c1ccccc1-2 [Compound C-171, 2-[2-(Dimethylamino)ethyl]-5-[(2-benzylamino)ethylamino]-2,7-dihydro-3H-dibenzo[de,h]cynnolino-3,7-dion] |  |  |  |  |  |  |  |  |  |  | 0.398 ± 0.025 | 0.375 ± 0.018 | 0.9 | 0.564 ± 0.034 | 1.4 |  |  |  |
| CCNCCNc1ccc2c(=O)n(CCN(C)C)nc3c2c1C(=O)c1ccccc1-3 [Compound C-180, 2-[2-(Dimethylamino)ethyl]-6-{[2-(ethylamino)ethyl]amino}-2,7-dihydro-3H-dibenzo[de,h]cynnoline-3,7dione] | 0.28 ± 0.05 | 4.53e+07 | 0.0022 ± 0.0001 | 0.0087 ± 0.0004 | 4.0 | 0.364 ± 0.036 | 165.5 | 0.0226 ± 0.0052 | 0.011 ± 0.0014 | 0.0752 ± 0.0162 |  |  |  |  |  |  |  |  |
| CC(=O)[C@]1(O)Cc2c(O)c3c(c(O)c2[C@@H](O[C@H]2C[C@H](N)[C@H](O)[C@H](C)O2)C1)C(=O)c1ccccc1C3=O [Idarubicin, reference compound] | 0.5 ± 0.06 | 2.5e+07 |  |  |  |  |  |  |  |  |  |  |  |  |  |  |  |  |
| CN(C)CCCn1nc2c3c(c(N)ccc3c1=O)C(=O)c1ccccc1-2 [PDZ-3, 2-[3-(Dimethylamino)propyl]-6-amino-2,7-dihydro-3H-dibenzo[de,h]cynnoline-3,7-dione] | 1.76 ± 0.12 | 7.1e+06 | 0.269 ± 0.041 | 0.509 ± 0.054 | 1.9 | 0.919 ± 0.089 | 3.4 | 0.725 ± 0.121 | 0.549 ± 0.085 | 0.709 ± 0.163 |  |  |  |  |  |  |  |  |
| Nc1ccc2c(=O)n(CCN3CCOCC3)nc3c2c1C(=O)c1ccccc1-3 [PDZ-4, 2-(2-Morpholinethyl)-6-amino-2,7-dihydro-3H-dibenzo[de,h]cynnoline-3,7-dione] | 16.8 ± 0.41 | 700000 | 2.08 ± 0.169 | 2.55 ± 0.286 | 1.2 | 4.71 ± 0.389 | 2.3 | 3.27 ± 0.355 | 2.79 ± 0.276 | 5.11 ± 0.206 |  |  |  |  |  |  |  |  |
| Nc1ccc2c(=O)n(CCN3CCCCC3)nc3c2c1C(=O)c1ccccc1-3 [PDZ-5, 2-[2-(Piperidinamino)ethyl]-6-amino-2,7-dihydro-3H-dibenzo[de,h]-cynnoline-3,7-dione] | 1.69 ± 0.1 | 7.5e+06 | 0.382 ± 0.056 | 0.677 ± 0.029 | 1.8 | 1.36 ± 0.135 | 3.6 | 0.538 ± 0.045 | 0.474 ± 0.076 | 0.886 ± 0.17 |  |  |  |  |  |  |  |  |
| CNc1ccc2c(=O)n(CCN(C)C)nc3c2c1C(=O)c1ccccc1-3 [PDZ-7, 2-[2-(Dimethylamino)ethyl]-6-(N-methylamino)-2,7-dihydro-3H-dibenzo[de,h]cynnoline-3,7-dione] | 1.85 ± 0.16 | 6.8e+06 | 0.021 ± 0.001 | 0.043 ± 0.002 | 2.0 | 0.62 ± 0.062 | 29.5 | 0.0286 ± 0.0028 | 0.0654 ± 0.0074 | 0.0805 ± 0.012 |  |  |  |  |  |  |  |  |
| CN(C)CCn1nc2c3c(c(NCc4ccccc4)ccc3c1=O)C(=O)c1ccccc1-2 [PDZ-8, 2-[2-(Dimethylamino)ethyl]-6-(N-benzylamino)-2,7-dihydro-3H-dibenzo[de,h]cynnoline-3,7-dione] | 7.29 ± 0.28 | 1.7e+06 | 0.719 ± 0.027 | 0.85 ± 0.093 | 1.2 | 4.8 ± 1.33 | 6.7 | 1.22 ± 0.142 | 0.683 ± 0.017 | 1.71 ± 0.125 |  |  |  |  |  |  |  |  |
| CCCCNCCNc1ccc2c(=O)[nH]nc3c2c1C(=O)c1ccccc1-3 [PDZ-9, 6-(2-Butylaminoethylamino)-2,7-dihydro-3H-dibenzo[de,h]cynnoline-3,7-dione] | 2.1 ± 0.1 | 6e+06 | 0.311 ± 0.054 | 0.574 ± 0.012 | 1.8 | 1.18 ± 0.094 | 3.8 | 0.558 ± 0.129 | 0.427 ± 0.08 | 1.25 ± 0.206 |  |  |  |  |  |  |  |  |
| CC(=O)O[C@H]1C(=O)[C@@]2(C)[C@H]([C@H](OC(=O)c3ccccc3)[C@]3(O)C[C@H](OC(=O)[C@H](O)[C@@H](NC(=O)c4ccccc4)c4ccccc4)C(C)=C1C3(C)C)[C@]1(OC(C)=O)CO[C@@H]1C[C@@H]2O [Taxol, reference compound] |  |  |  |  |  |  |  |  |  |  |  |  |  |  |  | 0.0039 ± 0.0006 | 0.0012 ± 0.0003 | 0.004 ± 0.0004 |
